Entries after “also recorded” stand apart in the source; their conditions may differ.
How the values were obtained:
[1] = test system: canonical Wnt signaling; test: Renal fibrosis in STZ-induced diabetic CD-1 mice treated with Wnt inhibitor; assay type: in vivo
Experimental: All experiments were performed in accordance with the National Institute of Health (NIH) Guidelines for the Care of Laboratory Animals. Mice lacking the endothelial glucocorticoid receptor (GR) (known as GR^ECKO) and those lacking this receptor on the Apo E null background (DKO) were generated as previously described (6). The induction of diabetes in CD-1 mice and C57B/L6 mice was performed according to previously established experimental protocols (38-42). Briefly, diabetes was induced in 10-week-old GR^ECKO mice with five consecutive intraperitoneal (IP) doses of streptozotocin (STZ) 50 mg/kg in 10 mmol/L citrate buffer (pH 4.5). Wnt inhibitor (LGK974) was provided to GR^ECKO and control littermate at 5 mg/kg at a frequency of six doses per week for 8 weeks (43). Etomoxir (20 mg/kg) and c75 (15 mg/kg) were dosed (ip) three times per week for 3 weeks in the GR^ECKO and control littermate. A single IP dose of 200 mg/kg STZ was used to induce diabetes in CD-1 mice. Fenofibrate (100 mg/kg), simvastatin (40 mg/kg), were dosed orally for 4 weeks in diabetic CD-1 mice. All mice were sacrificed after 4 weeks of treatment and tissues and blood were harvested. Urine albumin levels were assayed using a Mouse Albumin ELISA Kit (Exocell, Philadelphia, Pa.).
(§1) A point-counting method was utilized to evaluate the relative area of the mesangial matrix. PAS-stained glomeruli from each mouse were analyzed using a digital microscope screen grid containing 540 (27×20) points. Masson's trichrome-stained images were evaluated by ImageJ software, and the fibrotic areas were estimated.
(§2) Deparaffinized sections were incubated with picrosirius red solution for 1 hour at room temperature. The slides were washed twice with acetic acid solution for 30 seconds per wash. The slides were then dehydrated in absolute alcohol three times, cleared in xylene, and mounted with a synthetic resin. Sirius red staining was analyzed using ImageJ software, and fibrotic areas were quantified.
(§3) Paraffin-embedded kidney sections (5 μm thick) were deparaffinized and rehydrated (2 min in xylene, four times; 1 min in 100% ethanol, twice; 1 min in 95% ethanol; 45 s in 70% ethanol; and 1 min in distilled water), and the antigen was retrieved in a 10 mM citrate buffer pH 6 at 98° C. for 60 min. To block the endogenous peroxidase, all sections were incubated in 0.3% hydrogen peroxide for 10 min. The immunohistochemistry was performed using a Vectastain ABC Kit (Vector Laboratories, Burlingame, Calif.). Mouse anti-[…] antibody (1:100) and CPT1a (Abnova; H00001374-DO1P; 1:100) antibody was used. In the negative controls, the primary antibody was omitted and replaced with the blocking solution.
(§4) Frozen kidney sections (5 μm) were used for immunofluorescence; double positive labeling with CD31/αSMA, CD31/TGFβR1 and E-cadherin/αSMA was measured. Briefly, frozen sections were dried and placed in acetone for 10 min at −30° C. Once the sections were dried, they were washed twice in phosphate-buffered saline (PBS) for 5 min and then blocked in 2% bovine serum albumin/PBS for 30 min at room temperature. Thereafter, the sections were incubated in primary antibody (1:100) for 1 hour and washed in PBS (5 min) three times. Next, the sections were incubated with the secondary antibodies for 30 min, washed with PBS three times (5 min each), and mounted with mounting medium with DAPI (Vector Laboratories, Burlingame, Calif.). The immune-labeled sections were analyzed by fluorescence microscopy. For each mouse, original magnification of ×400 pictures were obtained from six different areas, and quantification was performed.
(§5) To determine whether inhibition of the Wnt signaling pathway could ameliorate the observed fibrosis, LGK974, a small molecule inhibitor of all secreted Wnts (43), was utilized. FIGS. 21A-21B depict the schematic diagram showing the experimental protocol for LGK974 treatment in diabetic CD-1 and UUO mice.

[2] = test system: canonical Wnt signaling; test: Renal fibrosis in unilateral ureteral obstruction (UUO) mice treated with Wnt inhibitor; assay type: in vivo
Experimental: UUO surgery procedure was performed as previously described (44). Briefly, mice were anesthetized with isoflurane (3%-5% for induction and 1%-3% for maintenance). Mice were shaved on the left side of the abdomen, a vertical incision was made through the skin with a scalpel, and the skin was retracted. A second incision was made through the peritoneum to expose the kidney. The left ureter was ligated twice 15 mm below the renal pelvis with surgical silk, and the ureter was then severed between the 2 ligatures. Then, the ligated kidney was placed gently back into its correct anatomical position, and sterile saline was added to replenish loss of fluid. The incisions were sutured and mice were individually caged. Buprenorphine was used as an analgesic. The first dose was administered 30 minutes before surgery and then every 12 h for 72 h, at a dose of 0.05 mg/kg subcutaneously. Mice were sacrificed and kidney and blood samples were harvested after perfusion with PBS at 10 days after UUO. Contralateral kidneys were used as a nonfibrotic control for all experiments using this model.
as §1, §2, §3, §4, §5

[3] = diabetic CD-1 mice, LGK974 5 mg/kg

Cc1cc(-c2ncc(CC(=O)Nc3ccc(-c4cnccn4)cn3)cc2C)ccn1 [LGK974]
ECM deposition [1, 3]: greatly diminished | collagen accumulation [1, 3]: greatly diminished | glomerulosclerosis [1, 3]: greatly diminished | relative area fibrosis [1, 3]: greatly diminished | endothelial GR level ([1]; diabetic mice, kidney CD31-positive cells): significantly restored | level of β-catenin ([1]; diabetic mice, kidney immunohistochemistry): suppressed | canonical Wnt signaling ([1]; mouse model of diabetic kidney disease): clearly suppressed | fibrogenic phenotype ([1]; mouse model of diabetic kidney disease (b57 legend also UUO mice)): substantially improved; also recorded: abolishes the fibrogenic phenotype | ECM deposition ([2]; LGK974 5 mg/kg): greatly diminished | collagen accumulation ([2]; LGK974 5 mg/kg): greatly diminished | glomerulosclerosis ([2]; LGK974 5 mg/kg): greatly diminished | relative area fibrosis ([2]; LGK974 5 mg/kg): greatly diminished | endothelial GR level ([2]; kidney CD31-positive cells): significantly restored | level of β-catenin ([2]; kidney immunohistochemistry): suppressed
